Data published in ChEMBL document CHEMBL3885881, “DrugMatrix”.

Species on record: Rattus norvegicus
Assay: DrugMatrix - Regimen: Daily Repeat
Format: toxicity, organism-based, Sprague-Dawley
Parameters: regimen Daily Repeat, gender Male, age 6-8 weeks
Conditions: in vivo, po, route oral GAVAGE, vehicle .5 % CMC; for ABSOLUTE BASOPHIL / ABSOLUTE EOSINOPHIL / ABSOLUTE LYMPHOCYTE / ABSOLUTE MONOCYTE / ABSOLUTE SEGMENTED NEUTROPHIL / BASOPHIL / EOSINOPHIL / ERYTHROCYTE COUNT / HEMATOCRIT / HEMOGLOBIN / LEUKOCYTE COUNT / LYMPHOCYTE / MEAN CORPUSCULAR HEMOGLOBIN / MEAN CORPUSCULAR HEMOGLOBIN CONCENTRATION / MEAN CORPUSCULAR VOLUME / MONOCYTE / NEUTROPHIL / NUCLEATED RED BLOOD CELLS / PLATELET COUNT: tissue Blood; for ALANINE AMINOTRANSFERASE / ALBUMIN / ALKALINE PHOSPHATASE / ASPARTATE AMINOTRANSFERASE / BLOOD UREA NITROGEN / CARBON DIOXIDE / CHLORIDE / CHOLESTEROL / CREATINE PHOSPHOKINASE / CREATININE / GLUCOSE / LACTATE DEHYDROGENASE / LIPASE / PHOSPHORUS / POTASSIUM / SODIUM / TOTAL BILIRUBIN / TOTAL PROTEIN / URIC ACID: tissue Plasma
[1] = 30 mg/kg, 72 h, dose level Low, time 3 day
[2] = 30 mg/kg, 120 h, dose level Low, time 5 day
[3] = 600 mg/kg, 72 h, dose level High, time 3 day
[4] = 600 mg/kg, 120 h, dose level High, time 5 day

Cc1c(OCC(F)(F)F)ccnc1C[S+]([O-])c1nc2ccccc2[nH]1 (configuration not stated) [LANSOPRAZOLE]
ABSOLUTE BASOPHIL [1]: 0 CELLS/uL | ABSOLUTE EOSINOPHIL [1]: 38 CELLS/uL | ABSOLUTE LYMPHOCYTE [1]: 11302.33 CELLS/uL | ABSOLUTE MONOCYTE [1]: 38 CELLS/uL | ABSOLUTE SEGMENTED NEUTROPHIL [1]: 588.33 CELLS/uL | BASOPHIL [1]: 0% | EOSINOPHIL [1]: 0.33% | ERYTHROCYTE COUNT [1]: 5.49 x10E6/uL | HEMATOCRIT [1]: 34.33% | HEMOGLOBIN [1]: 12.9 G/DL | LEUKOCYTE COUNT [1]: 11.97 x10E3/uL | LYMPHOCYTE [1]: 94.33% | MEAN CORPUSCULAR HEMOGLOBIN [1]: 23.47 pg | MEAN CORPUSCULAR HEMOGLOBIN CONCENTRATION [1]: 37.53 G/DL | MEAN CORPUSCULAR VOLUME [1]: 62.53 fL | MONOCYTE [1]: 0.33% | NEUTROPHIL [1]: 5% | NUCLEATED RED BLOOD CELLS [1]: 0 /100WBC | PLATELET COUNT [1]: 1374 x10E3/uL | ALANINE AMINOTRANSFERASE [1]: 48.67 u/L | ALBUMIN [1]: 4.03 G/DL | ALKALINE PHOSPHATASE [1]: 333 u/L | ASPARTATE AMINOTRANSFERASE [1]: 84.33 u/L | BLOOD UREA NITROGEN [1]: 13.67 mg/dL | CARBON DIOXIDE [1]: 25.33 mmol/L | CHLORIDE [1]: 103 MEQ/L | CHOLESTEROL [1]: 81.33 mg/dL | CREATINE PHOSPHOKINASE [1]: 302.33 u/L | CREATININE [1]: 0.28 mg/dL | GLUCOSE [1]: 162 mg/dL | LACTATE DEHYDROGENASE [1]: 455.33 u/L | LIPASE [1]: 12 u/L | PHOSPHORUS [1]: 14.17 mg/dL | POTASSIUM [1]: 6.71 MEQ/L | SODIUM [1]: 146.4 MEQ/L | TOTAL BILIRUBIN [1]: 0.17 mg/dL | TOTAL PROTEIN [1]: 5.57 G/DL | URIC ACID [1]: 1.93 mg/dL | ABSOLUTE BASOPHIL [2]: 0 CELLS/uL | ABSOLUTE EOSINOPHIL [2]: 0 CELLS/uL | ABSOLUTE LYMPHOCYTE [2]: 12566 CELLS/uL | ABSOLUTE MONOCYTE [2]: 465.33 CELLS/uL | ABSOLUTE SEGMENTED NEUTROPHIL [2]: 1302 CELLS/uL | BASOPHIL [2]: 0% | EOSINOPHIL [2]: 0% | ERYTHROCYTE COUNT [2]: 5.54 x10E6/uL | HEMATOCRIT [2]: 36.83% | HEMOGLOBIN [2]: 13.67 G/DL | LEUKOCYTE COUNT [2]: 14.33 x10E3/uL | LYMPHOCYTE [2]: 87.67% | MEAN CORPUSCULAR HEMOGLOBIN [2]: 24.73 pg | MEAN CORPUSCULAR HEMOGLOBIN CONCENTRATION [2]: 37.17 G/DL | MEAN CORPUSCULAR VOLUME [2]: 66.5 fL | MONOCYTE [2]: 3.33% | NEUTROPHIL [2]: 9% | NUCLEATED RED BLOOD CELLS [2]: 0 /100WBC | PLATELET COUNT [2]: 1375.67 x10E3/uL | ALANINE AMINOTRANSFERASE [2]: 52.33 u/L | ALBUMIN [2]: 4.3 G/DL | ALKALINE PHOSPHATASE [2]: 288.67 u/L | ASPARTATE AMINOTRANSFERASE [2]: 81 u/L | BLOOD UREA NITROGEN [2]: 16.33 mg/dL | CARBON DIOXIDE [2]: 22.33 mmol/L | CHLORIDE [2]: 103.67 MEQ/L | CHOLESTEROL [2]: 82 mg/dL | CREATINE PHOSPHOKINASE [2]: 222.67 u/L | CREATININE [2]: 0.33 mg/dL | GLUCOSE [2]: 147 mg/dL | LACTATE DEHYDROGENASE [2]: 157.67 u/L | LIPASE [2]: 13 u/L | PHOSPHORUS [2]: 12.33 mg/dL | POTASSIUM [2]: 7.1 MEQ/L | SODIUM [2]: 147.6 MEQ/L | TOTAL BILIRUBIN [2]: 0.2 mg/dL | TOTAL PROTEIN [2]: 6.07 G/DL | URIC ACID [2]: 1.6 mg/dL | ABSOLUTE BASOPHIL [3]: 0 CELLS/uL | ABSOLUTE EOSINOPHIL [3]: 0 CELLS/uL | ABSOLUTE LYMPHOCYTE [3]: 13053.67 CELLS/uL | ABSOLUTE MONOCYTE [3]: 222.67 CELLS/uL | ABSOLUTE SEGMENTED NEUTROPHIL [3]: 690.33 CELLS/uL | BASOPHIL [3]: 0% | EOSINOPHIL [3]: 0% | ERYTHROCYTE COUNT [3]: 5.81 x10E6/uL | HEMATOCRIT [3]: 37.37% | HEMOGLOBIN [3]: 13.57 G/DL | LEUKOCYTE COUNT [3]: 13.97 x10E3/uL | LYMPHOCYTE [3]: 93.67% | MEAN CORPUSCULAR HEMOGLOBIN [3]: 23.33 pg | MEAN CORPUSCULAR HEMOGLOBIN CONCENTRATION [3]: 36.3 G/DL | MEAN CORPUSCULAR VOLUME [3]: 64.3 fL | MONOCYTE [3]: 1.33% | NEUTROPHIL [3]: 5% | NUCLEATED RED BLOOD CELLS [3]: 0.33 /100WBC | PLATELET COUNT [3]: 1408 x10E3/uL | ALANINE AMINOTRANSFERASE [3]: 39 u/L | ALBUMIN [3]: 4.1 G/DL | ALKALINE PHOSPHATASE [3]: 387.33 u/L | ASPARTATE AMINOTRANSFERASE [3]: 76.67 u/L | BLOOD UREA NITROGEN [3]: 16.33 mg/dL | CARBON DIOXIDE [3]: 28 mmol/L | CHLORIDE [3]: 104.67 MEQ/L | CHOLESTEROL [3]: 55.33 mg/dL | CREATINE PHOSPHOKINASE [3]: 222 u/L | CREATININE [3]: 0.18 mg/dL | GLUCOSE [3]: 159 mg/dL | LACTATE DEHYDROGENASE [3]: 91.33 u/L | LIPASE [3]: 9.67 u/L | PHOSPHORUS [3]: 12.23 mg/dL | POTASSIUM [3]: 6.7 MEQ/L | SODIUM [3]: 147.6 MEQ/L | TOTAL BILIRUBIN [3]: 0.13 mg/dL | TOTAL PROTEIN [3]: 5.53 G/DL | URIC ACID [3]: 1.8 mg/dL | ABSOLUTE BASOPHIL [4]: 0 CELLS/uL | ABSOLUTE EOSINOPHIL [4]: 0 CELLS/uL | ABSOLUTE LYMPHOCYTE [4]: 15467 CELLS/uL | ABSOLUTE MONOCYTE [4]: 599 CELLS/uL | ABSOLUTE SEGMENTED NEUTROPHIL [4]: 1467.33 CELLS/uL | BASOPHIL [4]: 0% | EOSINOPHIL [4]: 0% | ERYTHROCYTE COUNT [4]: 5.82 x10E6/uL | HEMATOCRIT [4]: 35.9% | HEMOGLOBIN [4]: 13.57 G/DL | LEUKOCYTE COUNT [4]: 17.53 x10E3/uL | LYMPHOCYTE [4]: 87.67% | MEAN CORPUSCULAR HEMOGLOBIN [4]: 23.33 pg | MEAN CORPUSCULAR HEMOGLOBIN CONCENTRATION [4]: 37.8 G/DL | MEAN CORPUSCULAR VOLUME [4]: 61.7 fL | MONOCYTE [4]: 3.33% | NEUTROPHIL [4]: 9% | NUCLEATED RED BLOOD CELLS [4]: 0.33 /100WBC | PLATELET COUNT [4]: 1179.67 x10E3/uL | ALANINE AMINOTRANSFERASE [4]: 36 u/L | ALBUMIN [4]: 3.93 G/DL | ALKALINE PHOSPHATASE [4]: 272.33 u/L | ASPARTATE AMINOTRANSFERASE [4]: 83.33 u/L | BLOOD UREA NITROGEN [4]: 16.67 mg/dL | CARBON DIOXIDE [4]: 28.33 mmol/L | CHLORIDE [4]: 106 MEQ/L | CHOLESTEROL [4]: 51.33 mg/dL | CREATINE PHOSPHOKINASE [4]: 144.33 u/L | CREATININE [4]: 0.17 mg/dL | GLUCOSE [4]: 138.67 mg/dL | LACTATE DEHYDROGENASE [4]: 71 u/L | LIPASE [4]: 10.67 u/L | PHOSPHORUS [4]: 10.43 mg/dL | POTASSIUM [4]: 6.81 MEQ/L | SODIUM [4]: 148.63 MEQ/L | TOTAL BILIRUBIN [4]: 0.17 mg/dL | TOTAL PROTEIN [4]: 5.73 G/DL | URIC ACID [4]: 1.27 mg/dL
